According to paper PMC8139947, “Novel late-stage radiosynthesis of 5-[18F]-trifluoromethyl-1,2,4-oxadiazole (TFMO) containing molecules for PET imaging” (Scientific Reports, 2021):

What was measured:
[1] = Aqueous solubility / formulation for in vivo studies; assay type: physicochemical; conditions: high concentration of DMSO (~ 50%) needed to solubilise the tracer
[2] = Partition coefficient (LogD), octanol/PBS shake flask method; assay type: physicochemical; conditions: octanol / phosphate buffer pH 7.4, shake flask, radioactivity counted by gamma-counter; read-out: LogD (observed)
Description: We determined the partition coefficients (LogD) using the octanol/PBS shake flask method.

aqueous solubility [1]: poor | logD [2]: > 6
SMILES: CC(C)(CNC(=O)c1cccc(-c2noc(C(F)(F)[18F])n2)c1)c1coc(-c2ccccc2)n1 [[^18F]TMP195, N-(2-methyl-2-(2-phenyloxazol-4-yl)propyl)-3-(5-([18F]trifluoromethyl)-1,2,4-oxadiazol-3-yl)benzamide]
